Test results taken from paper doi:10.1101/2022.07.11.499659v1 (bioRxiv, 2022).

What was measured:
[1] = molecular target: T1, α-Synuclein (αS) aggregation (Homo sapiens, UniProt P37840); assay: Spin-down assay / SDS-PAGE of soluble and insoluble αS fractions; format: biochemical; conditions: 100 μM αS aggregated four days, indicated molar ratios
[2] = tested on: UA196 worms (human αS and GFP in DA neurons); assay: Confocal count of healthy DA neurons in UA196 worms, early treatment; format: in vivo, C. elegans; conditions: UA196, 50 μM on day two
αS = αS (Homo sapiens, UniProt P37840); assay: 2D HSQC; format: binding; conditions: 70 μM 15N αS, NS132 equimolar
[3] = molecular target: T1, α-Synuclein (αS) aggregation; assay: Thioflavin T; format: biochemical; conditions: 100 μM αS in 1 × PBS, ligand at equimolar ratio, four days
[4] = tested on: NL5901 worms (αS-YFP in body wall muscle cells); assay: Confocal count of αS-YFP inclusions in NL5901 worms; format: in vivo, C. elegans; conditions: NL5901, 50 μM on day two

Antagonist activity by SDS-PAGE analysis [1] | binding site of NS132 on αS (residues with changed amide peaks) (αS) | Effect on αS aggregation, ThT assay [3] | Structure (SMILES) | neuroprotective effect on degeneration of DA neurons [2] | number of inclusions [4] | % loss of the total number of DA neurons ([2]; up to 15 days) [%]
poor antagonist of αS aggregation | – | – | Cc1ccc(NC(=O)c2ccc(NC(=O)c3ccc([N+](=O)[O-])c(NCCc4c[nH]c5ccccc45)n3)c(NCC3CCCCC3)n2)c(OCC(=O)OC(C)(C)C)n1 [NS132-P] | – | – | –
– | residues 10-20, 36-43, and 50,55,59 | most potent antagonist | Cc1ccc(NC(=O)c2ccc(NC(=O)c3ccc([N+](=O)[O-])c(NCCc4c[nH]c5ccccc45)n3)c(NCC3CCCCC3)n2)c(OCC(=O)O)n1 [NS132] | very good neuroprotective effect | decrease in the number of inclusions | –
– | – | potent antagonist of αS aggregation | Cc1ccc(NC(=O)c2ccc(NC(=O)c3ccc([N+](=O)[O-])c(NCCc4c[nH]c5ccccc45)n3)c(NCC3CCCCC3)n2)c(OCC(=O)NO)n1 [NS163] | remarkable neuroprotective effect | – | < 5
